{"source": "patent US20090143313A1", "about": "(priority 2004, published 2009)", "origin": "cited, not measured here", "key": {"[1]": {"test_system": "5-FU-immune-suppressed animals", "settings": "in vivo"}, "tuberculosis": {"test_system": "tuberculosis", "settings": "human, in vivo"}, "[2]": {"test_system": "immunization with sheep red blood cells", "settings": "in vivo"}}}
{"smiles": "N[C@H](CCC(=O)N[C@@H](Cc1c[nH]c2ccccc12)C(=O)O)C(=O)O", "note": "[SCV-07, γ-D-glutamyl-L-tryptophan]", "values": [{"measurement": "Immunostimulatory effect", "setting": "[1]", "value": "strong immunostimulatory effect"}, {"measurement": "Cavity healing and symptoms of tuberculosis", "setting": "tuberculosis", "value": "positive effect"}, {"measurement": "Incidence of mycobacteria-negative sputum cultures", "setting": "tuberculosis", "value": "increased"}, {"measurement": "Con-A-induced interleukin-2 (IL-2) production and IL-2 receptor expression by spleen lymphocytes", "setting": "spleen lymphocytes", "value": "increases"}, {"measurement": "Immunostimulatory effect", "setting": "[2]", "value": "strong immunostimulatory effect"}, {"measurement": "Expression of Thy-1.2 on bone marrow cells", "setting": "bone marrow cells", "value": "stimulates"}]}
